The record followed here is paper PMC4762374 (MedChemComm, 2015).

One experiment addresses NDM-1 (Purified) (Klebsiella pneumoniae, UniProt C7C422). In words: In vitro β-lactamase inhibition screening, NDM-1. Type of experiment: biochemical. Conditions: for inhibition of NDM-1 (in words): class B enzymes, effect of N-thiolation.
The next experiment concerns M.tb (H37Rv). In words: Microplate alamar blue assay. As to conditions: against M.tb. Type of experiment: cell-based, Mycobacterium tuberculosis. (In general: Alamar Blue is a resazurin reagent that responds to reducing activity.)
The next experiment deals with M. vaccae. In words: Kirby-Bauer antibacterial agar diffusion assay. It is filed as cell-based. In general terms: Agar diffusion results depend on both activity and mobility in agar.
The target in another experiment is CTX-M-14 (Purified) (Escherichia coli, UniProt Q9L5C7). In words: In vitro β-lactamase inhibition screening, CTX-M-14. It is filed as biochemical.

Some results are limits rather than exact numbers.

NDM-1 (Purified), sequence (C7C422 29-270 limits assumed): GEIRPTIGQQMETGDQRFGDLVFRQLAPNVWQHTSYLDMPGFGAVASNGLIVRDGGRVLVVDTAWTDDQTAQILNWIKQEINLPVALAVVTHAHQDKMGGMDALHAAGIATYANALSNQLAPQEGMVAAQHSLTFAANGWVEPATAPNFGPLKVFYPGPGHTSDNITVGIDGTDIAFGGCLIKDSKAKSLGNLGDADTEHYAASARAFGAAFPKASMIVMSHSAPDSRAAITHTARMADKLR

As for `C=CCON(C(=O)c1ccc([N+](=O)[O-])cc1)C1CC(=O)N1` (centres unmarked) [Compound 7c], the “inhibition of NDM-1 (in words)” value at NDM-1 (Purified) is “inactive”.

With `CSN1C(=O)[C@H]([C@@H](C)O[Si](C)(C)C(C)(C)C)[C@H]1N(OCc1ccccc1)C(=O)c1ccccc1` [Compound 13], the “anti-TB activity (in words)” value in the experiment on M.tb (H37Rv) was “good activity”. In the experiment on M. vaccae, the “activity in the agar studies (in words)” value was “not very active”.

For `CCOc1ccc(C(=O)N(OCc2ccccc2)C2CC(=O)N2)cc1` (centres unmarked) [Compound 7b], the “inhibition of NDM-1 (in words)” value on NDM-1 (Purified) was “inactive”.

In general, Ki refers to a measure of affinity in units of concentration, obtained from inhibition or displacement. As to `O=C(Cc1ccccc1)N[C@@H]1C(=O)N[C@H]1N(OCc1ccccc1)C(=O)c1ccccc1` [Compound 18], the Ki on CTX-M-14 (Purified) is 50 nM; on NDM-1 (Purified), over 160000 nM.

As for `C[C@@H](O)[C@H]1C(=O)N[C@@H]1N(OCc1ccccc1)C(=O)c1ccccc1` [Compound 12], the “anti-TB activity (in words)” value in the experiment with M.tb (H37Rv) was “inactive”. At CTX-M-14 (Purified) (after silyl removal, compared with CTX-M-14-directed compound 13), the “β-lactamase inhibitory activity (in words)” value is “inactive”.

In the case of `CCOc1ccc(C(=O)N(OCc2ccccc2)C2CC(=O)N2SC)cc1` (centres unmarked) [Compound 8b], the “inhibition of NDM-1 (in words)” value at NDM-1 (Purified) is “potent inhibitor”.

`C=CCON(C(=O)c1ccc([N+](=O)[O-])cc1)C1CC(=O)N1SC` (centres unmarked) [Compound 8c]: the “inhibition of NDM-1 (in words)” value against NDM-1 (Purified) is on record as “potent inhibitor”.

As for `C[C@@H](O[Si](C)(C)C(C)(C)C)[C@H]1C(=O)N[C@@H]1N(OCc1ccccc1)C(=O)c1ccccc1` [Compound 11], the “anti-TB activity (in words)” value with M.tb (H37Rv) was “did not exhibit noticeable anti-TB activity”.

With `CSN1C(=O)[C@@H](NC(=O)COc2ccccc2)[C@@H]1N(OCc1ccccc1)C(=O)c1cc([N+](=O)[O-])cc(C(F)(F)F)c1` (racemic) [Compound 24b], the “inhibition of NDM-1 (in words)” value on NDM-1 (Purified) is “potent inhibitor”.

Regarding `CSN1C(=O)[C@@H](NC(=O)COc2ccccc2)[C@@H]1N(OCc1ccccc1)C(=O)c1ccccc1` (racemic) [Compound 24a], the “activity in the agar studies (in words)” value with M. vaccae is given as “not very active”.

Turning to `CC(C)(C)[Si](C)(C)N1C(=O)CC1N(OCc1ccccc1)C(=O)c1ccccc1` (centres unmarked) [Compound 6], in the experiment on M. vaccae, the “activity in the agar studies (in words)” value is “not very active”.
